A short description of series [1]: In vitro penetration rate across human skin in modified Franz cells. It is filed as in vitro ADME. Particulars: for In vitro Penetration Rate of HPPs (apparent flux): 3% solution in ethanol/pH 7.4 phosphate buffer (0.2 M) 70/30. As to the method:
Penetration rates of HPPs and their parent drugs through human skin were measured in vitro by modified Franz cells. A Franz cell had two chambers, the top sample chamber and the bottom receiving chamber. The human skin tissue (360-400 μm thick) that separated the top and the receiving chambers was isolated from the anterior or posterior thigh areas.
A compound tested (0.5 mL, 3% in a mixture of ethanol and phosphate buffer (0.2M, pH 7.4) (v/v, 70/30)) was added to the sample chamber of a Franz cell. The receiving chamber contains 2 ml of 2% bovine serum albumin in saline which was stirred at 600 rpm. The amount of the tested compound penetrating the skin was determined by high-performance liquid chromatography (HPLC) method.
The lowest detectable apparent flux values in this method was 1 μg/cm^2/h.

A short description of series [2]: Irritative effect or discomfort on skin of nude mice after topical application. It is filed as in vivo. Conditions: 0.1 ml of 3% in pH 7.4 phosphate buffer, back of nude mice, twice per day, 1 week. As to the method:
Irritative effect or discomfort in the skin of mice of HPPs of 1H-imidazo[4,5-c]quinolin-4-amines or 1H-imidazo[4,5-c]quinolin-4-amine-related compounds was evaluated during a period of 1 week after the topical application of 0.1 ml of 3% of the respective test drug in pH 7.4 phosphate buffer (0.2 M) to the back of nude mice twice per day.

Series [3] in a line: Conversion of HPPs to parent drugs in human plasma (half life). It is filed as in vitro ADME. Particulars: 37° C. As to the method: HPPs of 1H-imidazo[4,5-c]quinolin-4-amines or 1H-imidazo[4,5-c]quinolin-4-amine-related compounds converted to the parent 1H-imidazo[4,5-c]quinolin-4-amines or 1H-imidazo[4,5-c]quinolin-4-amine-related compounds quickly in good yield in human plasma.
A HPP of 1H-imidazo[4,5-c]quinolin-4-amines or 1H-imidazo[4,5-c]quinolin-4-amine-related compound (0.05 mg) was dissolved in 0.1 ml of 0.2M pH 7.4 phosphate buffer. 1 ml of human plasma, preheated to 37° C., was added into the mixture. The mixture was kept in a water bath at 37° C., and at every 10 min intervals 0.2 ml of samples were withdrawn and added to 0.4 ml of methanol to precipitate the plasma protein. The samples were centrifuged for 5 min and analyzed by HPLC.

Series [4] has as its system Human breast cancer cells (BCAP-37). The series is described as follows: Antitumor activity, breast cancer xenograft, topical treatment from day 1. Particulars: 50 μl of 3% topically once per day from day 1; after 28 days. An excerpt:
Human breast cancer cells (BCAP-37, 4-5 mm^3 of tumor tissue was used in each mouse) were subcutaneous xenografted into nude mice (BALB).

The subject of series [5] is Human colon cancer cells (LS174J). The experiment in a line: Antitumor activity, colon cancer xenograft, topical treatment from day 1. Conditions: 50 μl of 3% topically twice per day from day 1; after 28 days. An excerpt:
Human colon cancer cells (LS174J, 4-5 mm^3 of tumor tissue was used in each mouse) were subcutaneously xenografted into nude mice (BALB).

Series [6] relates to Human breast cancer cells (BCAP-37). An excerpt:
Human breast cancer cells (BCAP-37, 3-4 mm^3 of tumor tissue was used in each mouse) were subcutaneously xenografted into nude mice (BALB).

Series [7] deals with interferon production. The series is described as follows: Interferon inducing activity in guinea pigs (serum protection of fibroblasts from mengovirus). It is filed as in vivo. Conditions: serum 18 hours after treatment. As to the method:
Without being bound by any mechanism, the ability to induce interferon production of the pro-drugs of the invention was evaluated in guinea pigs (n=10). Untreated guinea pigs provided controls.
Each test drug was administered to real back skin of a guinea pig at a specific dose of about 0.5-4.5 mg/kg respectively.
Each treated and control guinea pig was bled 18 hours after drug treatment and its serum was assayed for interferon activity. The serum was diluted and incubated with guinea pig fibroblast cells at 37° C. overnight in 96 well microtiter plates. The incubated cells were then challenged with an inoculum of mengovirus that was sufficient to kill untreated cells in two days. Two days after such challenge, the cells were examined both microscopically and after staining with crystal violet to determine whether the cells remained intact.
Table 4 contains the results of the study with activity/ml indicating the highest dilute on of serum that protected cells from virus challenge. Untreated guinea pigs provided controls.

Series [8] relates to herpes simplex virus Type II. The series is described as follows: Anti-Herpes activity, treated for 3 days before HSV infection. The format is in vivo. Particulars: guinea pigs. As to the method: (§1) The evaluation of anti-Herpes activity of these prodrugs was carried out using the method described by Kern, et al. [Antimicrob. Agents Chemother. 14, 817, (1978)]. In each experiment, female guinea pigs (n=10) were anesthetized. […] Virus replication was monitored by determining the amount of virus recovered with vaginal swabs taken on day 7 after infection. […] The percent Lesion Inhibition was calculated as follows: 100-[(Sum of maximum lesion scores of treated group divided by the Sum of the scores of infected control)×100] (Table 5).

For series [9], the system named is herpes simplex virus Type I. Described as above. The format is in vivo. Particulars: guinea pigs. The method, then:
as §1

Series [10] relates to herpes simplex virus Type II. The series is described as follows: Anti-Herpes activity, treated for 5 days, first treatment just after HSV infection. The format is in vivo. Particulars: guinea pigs. The method, then:
(§2) The evaluation of anti-Herpes activity of these prodrugs was carried out using the method described by Kern, et al. [Antimicrob. Agents Chemother. 14, 817, (1978)].
(§3) In the second experiment, female guinea pigs (n=10) were anesthetized. Herpes simplex virus (Type I or Type II, about 10^5 plaque forming units were used) was applied intravaginally to the guinea pigs using a cotton swab. […] Virus replication was monitored by determining the amount of virus recovered with vaginal swabs taken on day 7 after infection. External lesions were scored daily for ten days using the following scale: 0, no lesion; 1, redness and swelling; 2, a few small vesicles; 3, several large vesicles; 4, large ulcers and necrosis; and 5, paralysis. The percent Lesion Inhibition was calculated as follows: 100−[(Sum of maximum lesion scores of treated group divided by the Sum of the scores of infected control)×100] (Table 6).

The subject of series [11] is herpes simplex virus Type I. The description is as above. It is filed as in vivo. Particulars: guinea pigs. The method, then: as §2, §3
In series [12] the test system is herpes simplex virus Type II. The experiment in a line: Anti-Herpes activity, treated for 5 days, first treatment 5 days after HSV infection. It is filed as in vivo. Conditions: guinea pigs. As to the method:
as §2
(§4) In the third experiment, female guinea pigs (n=10) were anesthetized. The guinea pigs were then infected with herpes simplex virus (type I or Type II, about 10^5 plaque forming units were used) intravaginally using a cotton swab. […] External lesions were scored daily for ten days using the following scale: 0, no lesion; 1, redness and swelling; 2, a few small vesicles; 3, several large vesicles; 4, large ulcers and necrosis; and 5, paralysis. The percent Lesion Inhibition was calculated as follows: 100−[(Sum of maximum lesion scores of treated group divided by the Sum of the scores of infected control)×100] (Table 7).

Series [13] has as its system herpes simplex virus Type I. Described as above. It is filed as in vivo. Particulars: guinea pigs. The method, then:
as §2, §4

The subject of series [14] is interferon production. The experiment in a line: Interferon inducing activity in guinea pigs (serum protection of fibroblasts from mengovirus). The format is in vivo. Conditions: serum 18 hours after treatment. This is another data set of the same source.
[15] abbreviates: at day 42, treatment from day 21 (tumors 13±2 mm×12±3 mm), 50 μl of 3% topically once per day.
Setting [16] is: 0.5 mg/kg once per day for 3 days before HSV infection.
[17] abbreviates: 1.5 mg/kg once per day for 3 days before HSV infection.
[18] abbreviates: 4.5 mg/kg once per day for 3 days before HSV infection.
Where [19] appears, read: 0.5 mg/kg once per day for 5 days.
Where [20] appears, read: 1.5 mg/kg once per day for 5 days.
[21] abbreviates: 4.5 mg/kg once per day for 5 days.

We go through three compounds from patent US9567329B2, “High penetration prodrug compositions of 1H-imidazo[4,5-c]quinolin-4-amines and 1H-imidazo[4,5-c]quinolin-4-amine-related compounds and uses thereof” (Techfields Pharma Co., Ltd, priority 2007, dated 2017).

On to `CCCCn1cnc2c(NC(=O)CNC)nc3ccccc3c21.Cl` [sarcosine 1-butyl-1H-imidazo[4,5-c]quinolin-4-amide hydrochloride], for which the “In vitro Penetration Rate of HPPs (apparent flux)” value in [1] is recorded as 0.13 mg/cm^2/h. The “signs of irritative effect or discomfort in the skin” value in series [2] is “None of any signs of irritative effect or discomfort was observed”. Also, the “Half life of HPPs in plasma” value in [3] was found to be 25 ± 2 min.

As for “sarcosine 1-benzyl-1H-imidazo[4,5-c]quinolin-4-amide hydrochloride”, the “In vitro Penetration Rate of HPPs (apparent flux)” value in series [1] is listed as 0.16 mg/cm^2/h. Moreover, the “signs of irritative effect or discomfort in the skin” value in series [2] is given as “None of any signs of irritative effect or discomfort was observed”. For the same compound, the “Half life of HPPs in plasma” value in series [3] worked out at 29 ± 1 min.

Regarding `CC(C)Cn1cnc2c(N)nc3ccccc3c21.Cl` [1-isobutyl-1H-imidazo[4,5-c]quinolin-4-amine hydrochloride, reference compound], in series [1] (3% suspension in ethanol/pH 7.4 phosphate buffer (0.2 M) 70/30), the “In vitro Penetration Rate of Parent compounds (apparent flux)” value worked out at 0.005 mg/cm^2/h. Further, in series [4], the “Tumor size, Human breast cancer, first dimension” value came to 12 ± 2 mm ×. The “Tumor size, Human breast cancer, second dimension” value in series [4] is recorded as 11 ± 2 mm. Further, the “tumor incidence, human breast cancer” value in series [4] was 100%. Moreover, the “Tumor size, Human colon cancer, first dimension” value in [5] stood at 17 ± 2 mm ×. Moreover, in [5], the “Tumor size, Human colon cancer, second dimension” value is reported as 15 ± 2 mm. Also, in series [5], the “tumor incidence, human colon cancer” value is recorded as 100%. In [6] (setting [15]), the “tumor size, first dimension” value was 17±2 mm. The “tumor size, second dimension” value in [6] (setting [15]) was 15±2 mm. For the same compound, the death of mice result in series [6] (up to day 70, 50 μl of 3% topically once per day from day 21) is “all mice died by day 70”. For the same compound, the “Interferon level of the parent drug, transdermal” value with interferon production [7] (0.5 mg/kg once) was 198 activity/ml; in the series on interferon production [7] (1.5 mg/kg once), 776 activity/ml; with interferon production [7] (4.5 mg/kg once), 2,785 activity/ml. Besides, the “% Lesion inhibition of the parent drug, intravaginal, Herpes type II” value in [8] (setting [16]) was 5%; in series [8] (setting [17]), 28%; in [8] (setting [18]), 87%; in series [10] (setting [19]), 2%; in series [10] (setting [20]), 21%; in [10] (setting [21]), 82%. Also, the “% Lesion inhibition of the parent drug, intravaginal, Herpes type II” value was determined as 2% in series [12] (setting [19]), 2% in series [12] (setting [20]) and 44% in [12] (setting [21]). In addition, the “% Lesion inhibition of the parent drug, transdermal, Herpes type II” value was 2% in [8] (setting [16]); 2% in [8] (setting [17]); 48% in series [8] (setting [18]); 2% in [10] (setting [19]); 6% in [10] (setting [20]); 54% in series [10] (setting [21]). In addition, the “% Lesion inhibition of the parent drug, transdermal, Herpes type II” value is given as 2% in series [12] (setting [19]), 2% in series [12] (setting [20]) and 24% in [12] (setting [21]). Further, the “% Lesion inhibition of the parent drug, intravaginal, Herpes type I” value in series [9] (setting [16]) stood at 4%; in series [9] (setting [17]), 23%; in [9] (setting [18]), 85%; in [11] (setting [19]) it was 2%; in series [11] (setting [20]), 17%; in series [11] (setting [21]) it was 78%. Besides, the “% Lesion inhibition of the parent drug, intravaginal, Herpes type I” value in series [13] (setting [19]) was found to be 2%; in series [13] (setting [20]) it was 2%; in series [13] (setting [21]), 37%. Further, the “% Lesion inhibition of the parent drug, transdermal, Herpes type I” value was determined as 2% in series [9] (setting [16]); 3% in series [9] (setting [17]); 45% in series [9] (setting [18]); 2% in series [11] (setting [19]); 7% in series [11] (setting [20]); 52% in series [11] (setting [21]). For the same compound, the results for the “% Lesion inhibition of the parent drug, transdermal, Herpes type I” value in series [13] (setting [19]), in series [13] (setting [20]) and in series [13] (setting [21]) were 2%, 2% and 22%, respectively. Besides, the “Interferon level of the parent drug, intravaginal” value with interferon production [14] (0.5 mg/kg once) was 385 activity/ml; with interferon production [14] (1.5 mg/kg once) it was 2,982 activity/ml; in the series with interferon production [14] (4.5 mg/kg once), 28,982 activity/ml.
